Values quoted from earlier work, collected in US20090041869A1, “METHOD OF REDUCING INSECT RESISTANT PESTS IN […]” (PIONEER HI-BRED INTERNATIONAL, INC., priority 2004, published 2009).
“Also recorded” adds a separate entry of the source. Where two headings read alike, the source gives them in different places.

System: European corn borer, Ostrinia nubilalis
Conditions: Cry 1F selected colony vs unselected colony, likelihood ratio test at α=0.05

Row | Substance | cross resistance of the Cry 1F selected strain to other Bt toxins | cross resistance of the Cry 1F selected strain to other Bt toxins (listed as Cry1 Ab)
1 | Cry 1Ab: Bt crystal protein toxin assessed for cross resistance | No cross resistance; also recorded: does not lead to loss of susceptibility | no cross resistance
2 | Cry 1Ac: Bt crystal protein toxin assessed for cross resistance | 6.89 fold | 
